Source: PubChem BioAssay (NCI)
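In this assay, cells in 96-well plates receive the compound at five concentrations for 48 hours. Endpoints are linearly interpolated between the surrounding concentrations. At the GI50, growth is halved. TGI is the concentration that stops growth completely.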

Assays:
Assay in all cases: growth of human tumour cells (NCI), 48 h
[1] = test system: HT29 colon
[2] = test system: A549 NSCLC
[3] = test system: NCI/ADR-RES ovarian
[4] = test system: MDA-MB-435
[5] = test system: CAKI-1 renal
[6] = test system: PC-3 prostate
[7] = test system: NCI-H226 lung
[8] = test system: TK-10 renal
[9] = test system: SN12C renal
[10] = test system: MDA-MB-231 breast
[11] = test system: SK-OV-3 ovarian
[12] = test system: K-562 leukemia
[13] = test system: SK-MEL-2 melanoma
[14] = test system: OVCAR-3 ovarian
[15] = test system: HS 578T breast
[16] = test system: SK-MEL-5 melanoma
[17] = test system: 786-0 renal
[18] = test system: SF-539 CNS
[19] = test system: UACC-62 melanoma
[20] = test system: COLO 205 colon
[21] = test system: OVCAR-5 ovarian
[22] = test system: HL-60(TB) leukemia
[23] = test system: HCC-2998 colon
[24] = test system: MALME-3M melanoma
[25] = test system: OVCAR-8 ovarian
[26] = test system: CCRF-CEM leukemia
[27] = test system: RXF 393 renal
[28] = test system: RPMI-8226 leukemia
[29] = test system: ACHN renal

C[C@]12CC[C@@H]3c4ccc(O)cc4CC[C@H]3[C@@H]1CC[C@@H]2NS(=O)(=O)c1cccc(OC(F)(F)F)c1
GI50 [1]: 2.14 µM | TGI [1]: 3.94 µM | GI50 [2]: 2.7 µM | TGI [2]: 8.24 µM | GI50 [3]: 2.59 µM | TGI [3]: 7.7 µM | GI50 [4]: 1.64 µM | TGI [4]: 3.02 µM | GI50 [5]: 2.11 µM | TGI [5]: 5.97 µM | GI50 [6]: 2.13 µM | TGI [6]: 8.18 µM | GI50 [7]: 1.69 µM | TGI [7]: 3.29 µM | GI50 [8]: 3.45 µM | TGI [8]: 10.1 µM | GI50 [9]: 1.65 µM | TGI [9]: 3.26 µM | GI50 [10]: 1.71 µM | TGI [10]: 3.86 µM | GI50 [11]: 3.1 µM | TGI [11]: 7.68 µM | GI50 [12]: 3.35 µM | TGI [12]: 10.8 µM | GI50 [13]: 2.18 µM | TGI [13]: 4.39 µM | GI50 [14]: 2.04 µM | TGI [14]: 3.99 µM | GI50 [15]: 2.62 µM | TGI [15]: 10.5 µM | GI50 [16]: 1.7 µM | TGI [16]: 3.32 µM | GI50 [17]: 1.92 µM | TGI [17]: 3.93 µM | GI50 [18]: 1.69 µM | TGI [18]: 3.09 µM | GI50 [19]: 2.04 µM | TGI [19]: 4.7 µM | GI50 [20]: 1.86 µM | TGI [20]: 3.3 µM | GI50 [21]: 1.73 µM | TGI [21]: 3.2 µM | GI50 [22]: 2.18 µM | TGI [22]: 7.04 µM | GI50 [23]: 3.16 µM | TGI [23]: 9.37 µM | GI50 [24]: 1.99 µM | TGI [24]: 4.67 µM | GI50 [25]: 2.78 µM | TGI [25]: 9.06 µM | GI50 [26]: 3.16 µM | TGI [26]: 12.3 µM | GI50 [27]: 1.64 µM | TGI [27]: 3.6 µM | GI50 [28]: 2.38 µM | TGI [28]: 6.4 µM | GI50 [29]: 2.45 µM
